Holding throughout (assay): relative viability (nuclei count vs DMSO), 5 days (fraction); higher = more cells survive
Compound in the assay “MK-2206 + Pemetrexed”: NC1(c2ccc(-c3nc4ccn5c(=O)[nH]nc5c4cc3-c3ccccc3)cc2)CCC1 [MK-2206] + Nc1nc2[nH]cc(CCc3ccc(C(=O)N[C@@H](CCC(=O)O)C(=O)O)cc3)c2c(=O)[nH]1 [Pemetrexed] (partner 0.2 µM)
The method in brief: (§1)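 Lung cancer cell lines in 1536-well plates got either a single drug or a fixed anchor-drug dose together with five library-drug doses (not always all listed) in √10 steps, by pin tool, on the day after seeding. Nuclei were counted after 5 days, and relative viability is the treated-to-vehicle ratio of nuclei counts. Values are medians of duplicate plates.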

Compound in the assay “Pictilisib + Luminespib”: CS(=O)(=O)N1CCN(Cc2cc3nc(-c4cccc5[nH]ncc45)nc(N4CCOCC4)c3s2)CC1 [Pictilisib] + CCNC(=O)c1noc(-c2cc(C(C)C)c(O)cc2O)c1-c1ccc(CN2CCOCC2)cc1 [Luminespib] (partner 0.01 µM)
The method in brief: as §1

Compound in the assay “Pictilisib + Navitoclax”: CS(=O)(=O)N1CCN(Cc2cc3nc(-c4cccc5[nH]ncc45)nc(N4CCOCC4)c3s2)CC1 [Pictilisib] + CC1(C)CCC(c2ccc(Cl)cc2)=C(CN2CCN(c3ccc(C(=O)NS(=O)(=O)c4ccc(N[C@H](CCN5CCOCC5)CSc5ccccc5)c(S(=O)(=O)C(F)(F)F)c4)cc3)CC2)C1 [Navitoclax] (partner 0.5 µM)
A digest of the protocol:
as §1

Compound in the assay “Pictilisib + Vorinostat”: CS(=O)(=O)N1CCN(Cc2cc3nc(-c4cccc5[nH]ncc45)nc(N4CCOCC4)c3s2)CC1 [Pictilisib] + O=C(CCCCCCC(=O)Nc1ccccc1)NO [Vorinostat] (partner 1 µM)
The method in brief: as §1

Compound in the next assay: NC1(c2ccc(-c3nc4ccn5c(=O)[nH]nc5c4cc3-c3ccccc3)cc2)CCC1 [MK-2206]
A digest of the protocol: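 Viability here means nuclei in treated wells divided by nuclei in vehicle wells, reported as the median across plates. Only plates with control CV below 25% and at least one doubling passed. Lung cancer cell lines in 1536-well plates were exposed to five √10-spaced library-drug doses for 5 days and counted from 4× Hoechst images in MetaXpress.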

The record followed here is the supplement of paper PMC10307832.

A-427: the relative viability with MK-2206 + Pemetrexed (first compound 0.01 µM) turned out to be 1.03; in the assay with MK-2206 + Pemetrexed (first compound 0.03162 µM) it was 0.925; in the assay with MK-2206 + Pemetrexed (first compound 0.3162 µM), 1.07; in the assay with MK-2206 + Pemetrexed (first compound 1 µM), 1.05; with Pictilisib + Luminespib (first compound 0.02 µM), 0.864; in the assay with Pictilisib + Luminespib (first compound 0.06325 µM) it was 0.97. Also, the relative viability with Pictilisib + Luminespib (first compound 0.6325 µM) was 0.855; in the assay with Pictilisib + Luminespib (first compound 2 µM), 0.724; with Pictilisib + Navitoclax (first compound 0.02 µM), 0.952; in the assay with Pictilisib + Navitoclax (first compound 0.06325 µM), 0.785; with Pictilisib + Navitoclax (first compound 0.6325 µM) it was 1.04; with Pictilisib + Navitoclax (first compound 2 µM), 0.809. Moreover, the relative viability came out at 0.84 with Pictilisib + Vorinostat (first compound 0.02 µM); 0.874 with Pictilisib + Vorinostat (first compound 0.06325 µM); 0.95 with Pictilisib + Vorinostat (first compound 0.6325 µM); 0.853 with Pictilisib + Vorinostat (first compound 2 µM); 1.04 with MK-2206 (0.01 µM); 1.06 with MK-2206 (0.03162 µM). Also, the relative viability in the assay with MK-2206 (0.3162 µM) was 0.981; in the assay with MK-2206 (1 µM) it was 0.974.

As to NCI-H596, the relative viability in the assay with MK-2206 + Pemetrexed (first compound 0.01 µM) worked out at 0.45; with MK-2206 + Pemetrexed (first compound 0.03162 µM), 0.567; in the assay with MK-2206 + Pemetrexed (first compound 0.3162 µM), 0.502; with MK-2206 + Pemetrexed (first compound 1 µM), 0.498; in the assay with Pictilisib + Luminespib (first compound 0.02 µM) it was 0.942; in the assay with Pictilisib + Luminespib (first compound 0.06325 µM), 0.92. Also, the relative viability stood at 0.442 with Pictilisib + Luminespib (first compound 0.6325 µM); 0.153 with Pictilisib + Luminespib (first compound 2 µM); 0.736 in the assay with Pictilisib + Navitoclax (first compound 0.02 µM); 0.835 with Pictilisib + Navitoclax (first compound 0.06325 µM); 0.645 with Pictilisib + Navitoclax (first compound 0.6325 µM); 0.206 with Pictilisib + Navitoclax (first compound 2 µM). The relative viability stood at 0.545 with Pictilisib + Vorinostat (first compound 0.02 µM); 0.618 with Pictilisib + Vorinostat (first compound 0.06325 µM); 0.371 with Pictilisib + Vorinostat (first compound 0.6325 µM); 0.709 with Pictilisib + Vorinostat (first compound 2 µM); 1.07 with MK-2206 (0.01 µM); 0.929 in the assay with MK-2206 (0.03162 µM). For the same cell line, the relative viability with MK-2206 (0.3162 µM) stood at 0.948; in the assay with MK-2206 (1 µM), 0.669.

RERF-LC-KJ: the relative viability is 0.489 with MK-2206 + Pemetrexed (first compound 0.01 µM); 0.471 in the assay with MK-2206 + Pemetrexed (first compound 0.03162 µM); 0.532 with MK-2206 + Pemetrexed (first compound 0.3162 µM); 0.476 in the assay with MK-2206 + Pemetrexed (first compound 1 µM); 1.23 in the assay with Pictilisib + Luminespib (first compound 0.02 µM); 1.29 with Pictilisib + Luminespib (first compound 0.06325 µM). Further, the relative viability in the assay with Pictilisib + Luminespib (first compound 0.6325 µM) worked out at 1; in the assay with Pictilisib + Luminespib (first compound 2 µM) it was 0.855; in the assay with Pictilisib + Navitoclax (first compound 0.02 µM) it was 0.93; with Pictilisib + Navitoclax (first compound 0.06325 µM), 0.728; in the assay with Pictilisib + Navitoclax (first compound 0.6325 µM), 0.91; in the assay with Pictilisib + Navitoclax (first compound 2 µM), 0.5. The relative viability was determined as 0.732 with Pictilisib + Vorinostat (first compound 0.02 µM); 0.699 with Pictilisib + Vorinostat (first compound 0.06325 µM); 0.573 in the assay with Pictilisib + Vorinostat (first compound 0.6325 µM); 0.461 with Pictilisib + Vorinostat (first compound 2 µM); 0.943 in the assay with MK-2206 (0.01 µM); 0.997 with MK-2206 (0.03162 µM). Also, the relative viability in the assay with MK-2206 (0.3162 µM) was found to be 0.854; with MK-2206 (1 µM), 0.919.

For the cell line NCI-H647, the relative viability with MK-2206 + Pemetrexed (first compound 0.01 µM) was 0.201; with MK-2206 + Pemetrexed (first compound 0.03162 µM), 0.165; with MK-2206 + Pemetrexed (first compound 0.3162 µM), 0.144; with MK-2206 + Pemetrexed (first compound 1 µM), 0.134; with Pictilisib + Luminespib (first compound 0.02 µM), 0.124; with Pictilisib + Luminespib (first compound 0.06325 µM) it was 0.151. The relative viability in the assay with Pictilisib + Luminespib (first compound 0.6325 µM) turned out to be 0.265; with Pictilisib + Luminespib (first compound 2 µM), 0.185; in the assay with Pictilisib + Navitoclax (first compound 0.02 µM) it was 1.27; in the assay with Pictilisib + Navitoclax (first compound 0.06325 µM) it was 1.03; in the assay with Pictilisib + Navitoclax (first compound 0.6325 µM) it was 0.928; with Pictilisib + Navitoclax (first compound 2 µM), 0.351. Also, the relative viability in the assay with Pictilisib + Vorinostat (first compound 0.02 µM) was found to be 0.532; with Pictilisib + Vorinostat (first compound 0.06325 µM) it was 0.795; with Pictilisib + Vorinostat (first compound 0.6325 µM), 0.515; with Pictilisib + Vorinostat (first compound 2 µM) it was 0.276; with MK-2206 (0.01 µM), 0.951; with MK-2206 (0.03162 µM), 1.11. The relative viability was 0.921 with MK-2206 (0.3162 µM) and 0.744 in the assay with MK-2206 (1 µM).

Turning to NCI-H1734, the relative viability was found to be 0.393 with MK-2206 + Pemetrexed (first compound 0.01 µM); 0.391 with MK-2206 + Pemetrexed (first compound 0.03162 µM); 0.401 with MK-2206 + Pemetrexed (first compound 0.3162 µM); 0.391 with MK-2206 + Pemetrexed (first compound 1 µM); 0.174 in the assay with Pictilisib + Luminespib (first compound 0.02 µM); 0.179 in the assay with Pictilisib + Luminespib (first compound 0.06325 µM). Besides, the relative viability worked out at 0.164 with Pictilisib + Luminespib (first compound 0.6325 µM); 0.171 with Pictilisib + Luminespib (first compound 2 µM); 0.797 with Pictilisib + Navitoclax (first compound 0.02 µM); 0.874 in the assay with Pictilisib + Navitoclax (first compound 0.06325 µM); 0.554 in the assay with Pictilisib + Navitoclax (first compound 0.6325 µM); 0.264 with Pictilisib + Navitoclax (first compound 2 µM). For the same cell line, the relative viability in the assay with Pictilisib + Vorinostat (first compound 0.02 µM) turned out to be 0.878; in the assay with Pictilisib + Vorinostat (first compound 0.06325 µM), 0.779; with Pictilisib + Vorinostat (first compound 0.6325 µM), 0.482; with Pictilisib + Vorinostat (first compound 2 µM), 0.375; with MK-2206 (0.01 µM), 1.01; with MK-2206 (0.03162 µM), 0.988. The relative viability with MK-2206 (0.3162 µM) is 0.764; in the assay with MK-2206 (1 µM) it was 0.795.

As to SK-LU-1, the relative viability in the assay with MK-2206 + Pemetrexed (first compound 0.01 µM) is 0.964; with MK-2206 + Pemetrexed (first compound 0.03162 µM) it was 0.963; in the assay with MK-2206 + Pemetrexed (first compound 0.3162 µM), 1.04; in the assay with MK-2206 + Pemetrexed (first compound 1 µM) it was 0.962; in the assay with Pictilisib + Luminespib (first compound 0.02 µM), 0.227; with Pictilisib + Luminespib (first compound 0.06325 µM), 0.193. Besides, the relative viability in the assay with Pictilisib + Luminespib (first compound 0.6325 µM) is 0.168; with Pictilisib + Luminespib (first compound 2 µM), 0.178; with Pictilisib + Navitoclax (first compound 0.02 µM), 0.972; with Pictilisib + Navitoclax (first compound 0.06325 µM), 1.04; with Pictilisib + Navitoclax (first compound 0.6325 µM), 0.624; in the assay with Pictilisib + Navitoclax (first compound 2 µM), 0.41. Further, the relative viability came to 0.857 in the assay with Pictilisib + Vorinostat (first compound 0.02 µM); 0.818 with Pictilisib + Vorinostat (first compound 0.06325 µM); 0.618 with Pictilisib + Vorinostat (first compound 0.6325 µM); 0.511 in the assay with Pictilisib + Vorinostat (first compound 2 µM); 1.09 with MK-2206 (0.01 µM); 1.05 with MK-2206 (0.03162 µM). In addition, the relative viability stood at 1.1 with MK-2206 (0.3162 µM) and 0.944 with MK-2206 (1 µM).
